Source: ChEMBL document CHEMBL1201862, “PubChem BioAssay data set” (2004)
The source made the active and inactive calls.

Tests used:
[1] = cytotoxicity in HEK-293T cells, dose response, cytotoxicity control for TCR NF-kB inhibitor project, luminescence, T-cell screen hits (AID 489026); type: functional, cell-based;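 also: cells exposed to compound about 14 hours before the viability readout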
[2] = cells; type: functional, cell-based
[3] = cells; type: functional, cell-based; remark: listed apart in the source
[4] = test system: BJ; assay: cytotoxicity toward Ras-transformed BJeLR fibroblasts, dose response, cell-based, alamar blue fluorescence, cherrypicked samples (AID 2631); type: functional; conditions: Homo sapiens;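 also: confirmatory dose-response assay in RAS-dependent BJ fibroblasts engineered with TERT, LT and ST, with cytotoxicity read by fluorescence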
[5] = NIH-3T3 fibroblast cytotoxicity, dose response, cytotoxicity control, cell-based, fluorescence, Alamar Blue, secondary assay (AID 2327); type: functional;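 also: NIH-3T3 mouse fibroblasts cultured with fluconazole at 8 µg/mL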
[6] = test system: INS1; assay: beta cell apoptosis inhibitors, cytokine rescue, dose response, luminescence, retest (AID 449756); type: functional, cell-based; conditions: Rattus norvegicus;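 also: cell death triggered by IL-1 beta plus TNF-alpha plus IFN-gamma mixture; protective hits raise ATP signal compared with cytokine alone wells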
[7] = C. albicans growth with fluconazole, confirmation, fluorescence, retest (AID 2467); type: functional, cell-based
[8] = biological target: T1, Mannose-6-phosphate isomerase (Homo sapiens, UniProt P34949); assay: inhibitors of human PMI, primary screen, biochemical, fluorescence intensity, coupled assay (AID 1209)
T1 sequence (P34949 whole entry): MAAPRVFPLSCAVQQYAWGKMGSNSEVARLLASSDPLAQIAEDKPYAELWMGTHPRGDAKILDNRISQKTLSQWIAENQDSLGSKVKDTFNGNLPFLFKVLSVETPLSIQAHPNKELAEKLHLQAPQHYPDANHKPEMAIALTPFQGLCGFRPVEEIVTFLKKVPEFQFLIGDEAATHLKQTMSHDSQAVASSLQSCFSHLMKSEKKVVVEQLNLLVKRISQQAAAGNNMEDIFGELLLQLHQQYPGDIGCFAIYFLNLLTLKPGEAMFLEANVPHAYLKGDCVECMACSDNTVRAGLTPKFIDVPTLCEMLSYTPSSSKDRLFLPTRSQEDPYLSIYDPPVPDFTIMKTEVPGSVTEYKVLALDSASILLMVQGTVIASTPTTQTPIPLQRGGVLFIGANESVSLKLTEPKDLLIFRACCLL

[9] = Luminescence-based cell-based high throughput dose response assay to identify activators of the DAF-12 from the parasite S. stercoralis (ssDAF-12).; type: functional
[10] = biological target: T2, Oxysterols receptor LXR-beta (Homo sapiens, UniProt P55055); type: functional, cell-based;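 also: Cell-based luminescence dose-response assay of agonist activity at LXR, run as a confirmatory counterscreen to a daf-12 agonist screen; agonist potency from rising luciferase signal of a Gal4-LXR reporter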
T2 sequence (P55055 whole entry): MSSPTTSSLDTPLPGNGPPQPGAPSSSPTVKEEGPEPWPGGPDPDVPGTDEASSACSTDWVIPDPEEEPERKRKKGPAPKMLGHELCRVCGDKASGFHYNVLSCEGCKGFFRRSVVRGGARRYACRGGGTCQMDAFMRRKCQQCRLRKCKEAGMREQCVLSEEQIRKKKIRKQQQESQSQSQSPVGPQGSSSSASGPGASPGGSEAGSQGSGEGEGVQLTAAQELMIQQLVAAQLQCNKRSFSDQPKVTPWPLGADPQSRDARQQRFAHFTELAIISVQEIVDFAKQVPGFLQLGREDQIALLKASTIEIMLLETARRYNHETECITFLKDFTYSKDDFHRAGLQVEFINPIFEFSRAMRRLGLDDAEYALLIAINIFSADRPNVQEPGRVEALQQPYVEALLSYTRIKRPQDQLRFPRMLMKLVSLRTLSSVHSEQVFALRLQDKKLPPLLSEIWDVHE

[11] = biological target: T3, Sentrin-specific protease 8 (Homo sapiens, UniProt Q96LD8); type: functional;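 also: luminescence read-out of SENP8 inhibition, dose-response confirmation following an ultra-high-throughput screen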
T3 sequence (Q96LD8 whole entry): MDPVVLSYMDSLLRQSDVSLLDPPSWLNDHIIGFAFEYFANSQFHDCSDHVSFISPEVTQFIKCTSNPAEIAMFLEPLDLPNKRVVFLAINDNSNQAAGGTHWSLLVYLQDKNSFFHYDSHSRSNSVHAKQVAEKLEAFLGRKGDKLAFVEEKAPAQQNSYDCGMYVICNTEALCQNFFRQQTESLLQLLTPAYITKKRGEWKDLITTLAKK

[12] = cells
[13] = biological target: Caspase-3 (Homo sapiens, UniProt P42574); type: functional;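 also: Dose-response selectivity test against caspase-3 for candidate inhibitors of sentrin-specific proteases (SENPs)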
[14] = biological target: Sentrin-specific protease 7 (Homo sapiens, UniProt Q9BQF6); type: functional;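 also: Luminescence-based dose-response confirmation of ultra-high-throughput screening hits, measuring inhibition of SENP7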
[15] = biological target: T2, Oxysterols receptor LXR-beta; assay: LXR agonists, Gal4 luciferase reporter, dose response, counter-screen for ssDAF-12 agonist project, cell-based, luminescence, HEK293, S. stercoralis campaign (AID 720737); type: functional; conditions: read-out: IC50 (the source's name)
[16] = biological target: Sentrin-specific protease 6 (Homo sapiens, UniProt Q9GZR1); type: functional;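 also: Luminescence-based dose-response confirmatory assay of SENP6 inhibition, following up an ultra-high-throughput screen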
[17] = biological target: T1, Mannose-6-phosphate isomerase; assay: human PMI inhibitors, high substrate, primary screen, biochemical, fluorescence intensity, high mannose 6-phosphate (AID 1220)
[18] = biological target: Induced myeloid leukemia cell differentiation protein Mcl-1 (Homo sapiens, UniProt Q07820); type: functional
[19] = biological target: Protein disulfide-isomerase (Homo sapiens, UniProt P07237); assay: PDI inhibitors, insulin aggregation turbidity, dose response, biochemical, absorbance, cherry-picked samples (AID 602350); type: functional
[20] = biological target: Large T antigen (Simian virus 40, UniProt P03070); type: functional, Betapolyomavirus macacae;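 also: Confirmatory-stage PubChem screen for compounds that inhibit SV40 T antigen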
[21] = biological target: Dual specificity tyrosine-phosphorylation-regulated kinase 1A (Rattus norvegicus, UniProt Q63470); type: biochemical, Homo sapiens
[22] = biological target: Melanocortin receptor 4 (Homo sapiens, UniProt P32245); assay: MC4R antagonist potency on cAMP, dose response, cell-based, TR-FRET, biased antagonists (AID 602298); type: functional;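 also: antagonist potency against agonist-stimulated cAMP production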
[23] = nonselective inhibitors of cellular cAMP signaling, dose response, counter-screen for MC4R biased antagonist project, cell-based, TR-FRET cAMP detection (AID 602305); type: functional;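 also: U2OS cells stimulated with forskolin near its EC80 as the cAMP inducer; potency is for inhibition of forskolin-stimulated cAMP signaling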
[24] = biological target: ATP-dependent molecular chaperone HSP82 (Candida albicans (strain WO-1) (Yeast), UniProt C4YTQ8); assay: loss of DOC-induced GRE-beta-galactosidase reporter signal, dose response, Hsp90 inhibitor project, S. cerevisiae, luminescence (AID 2400); type: functional, cell-based;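 also: beta-galactosidase luminescence from glucocorticoid response element reporter as proxy for Hsp90 function; inhibitor potency where signal loss means Hsp90 inhibition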
[25] = biological target: Serine/threonine-protein phosphatase (Candida dubliniensis (strain CD36 / CBS 7987 / NCPF 3949 / NRRLY-17841) (Yeast), UniProt B9W6M3); assay: calcineurin pathway inhibitors in yeast reporter, dose response, S. cerevisiae, CDRE-lacZ, luminescence, secondary (AID 2388); type: functional, cell-based;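 also: yeast reporter cells carrying a calcineurin-responsive lacZ construct stimulated with calcium chloride; luminescent beta-galactosidase reporter signal in whole cells rather than isolated phosphatase activity; potency for inhibition where a drop in reporter signal means calcineurin blockade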
[26] = biological target: T4, Fatty acid synthase (Homo sapiens, UniProt P49327); assay: FAS thioesterase domain inhibitors, dose response, biochemical, kinetic fluorescence intensity (AID 624326); type: functional;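 also: rate of fluorescence rise from hydrolysis of a fluorogenic O-methyl fluorescein ester substrate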
[27] = test system: Vero; assay: cells; type: functional; conditions: Chlorocebus sabaeus
[28] = biological target: T4, Fatty acid synthase; assay: FAS thioesterase domain inhibitors, dose response, biochemical, endpoint fluorescence intensity, uHTS hits (AID 624327); type: functional;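 also: fluorescence from hydrolysis of an O-methyl fluorescein acyl ester substrate by the enzyme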

Chain of Sentrin-specific protease 6 (Q9GZR1 whole entry): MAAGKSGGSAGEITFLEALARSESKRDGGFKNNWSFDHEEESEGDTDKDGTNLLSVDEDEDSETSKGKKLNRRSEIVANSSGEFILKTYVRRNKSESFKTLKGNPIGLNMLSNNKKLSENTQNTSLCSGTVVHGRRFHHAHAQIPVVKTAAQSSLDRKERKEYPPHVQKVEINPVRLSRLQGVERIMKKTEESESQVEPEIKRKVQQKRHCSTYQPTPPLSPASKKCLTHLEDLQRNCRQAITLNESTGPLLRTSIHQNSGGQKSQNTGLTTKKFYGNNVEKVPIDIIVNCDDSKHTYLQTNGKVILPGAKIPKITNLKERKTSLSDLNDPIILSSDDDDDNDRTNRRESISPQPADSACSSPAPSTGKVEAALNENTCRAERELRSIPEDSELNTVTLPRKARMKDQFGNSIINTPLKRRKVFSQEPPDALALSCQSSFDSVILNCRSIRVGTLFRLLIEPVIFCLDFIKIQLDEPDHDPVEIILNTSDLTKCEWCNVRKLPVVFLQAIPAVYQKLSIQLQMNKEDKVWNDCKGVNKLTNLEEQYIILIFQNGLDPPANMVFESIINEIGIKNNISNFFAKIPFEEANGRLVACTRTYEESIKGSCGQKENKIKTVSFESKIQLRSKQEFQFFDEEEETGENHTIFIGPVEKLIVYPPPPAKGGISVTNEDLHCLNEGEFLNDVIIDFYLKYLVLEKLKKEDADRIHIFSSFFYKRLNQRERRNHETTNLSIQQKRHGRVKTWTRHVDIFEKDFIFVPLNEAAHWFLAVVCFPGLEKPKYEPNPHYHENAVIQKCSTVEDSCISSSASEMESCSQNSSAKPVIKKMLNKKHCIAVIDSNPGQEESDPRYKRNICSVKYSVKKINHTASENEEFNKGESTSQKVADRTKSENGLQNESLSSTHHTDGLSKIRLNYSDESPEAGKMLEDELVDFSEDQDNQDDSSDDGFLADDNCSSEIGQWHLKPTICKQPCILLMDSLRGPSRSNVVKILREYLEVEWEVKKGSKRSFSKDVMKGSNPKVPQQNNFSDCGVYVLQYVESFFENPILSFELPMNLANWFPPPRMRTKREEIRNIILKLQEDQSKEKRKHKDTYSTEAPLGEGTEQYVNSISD
T4 sequence (P49327 whole entry, the tested form may be a part): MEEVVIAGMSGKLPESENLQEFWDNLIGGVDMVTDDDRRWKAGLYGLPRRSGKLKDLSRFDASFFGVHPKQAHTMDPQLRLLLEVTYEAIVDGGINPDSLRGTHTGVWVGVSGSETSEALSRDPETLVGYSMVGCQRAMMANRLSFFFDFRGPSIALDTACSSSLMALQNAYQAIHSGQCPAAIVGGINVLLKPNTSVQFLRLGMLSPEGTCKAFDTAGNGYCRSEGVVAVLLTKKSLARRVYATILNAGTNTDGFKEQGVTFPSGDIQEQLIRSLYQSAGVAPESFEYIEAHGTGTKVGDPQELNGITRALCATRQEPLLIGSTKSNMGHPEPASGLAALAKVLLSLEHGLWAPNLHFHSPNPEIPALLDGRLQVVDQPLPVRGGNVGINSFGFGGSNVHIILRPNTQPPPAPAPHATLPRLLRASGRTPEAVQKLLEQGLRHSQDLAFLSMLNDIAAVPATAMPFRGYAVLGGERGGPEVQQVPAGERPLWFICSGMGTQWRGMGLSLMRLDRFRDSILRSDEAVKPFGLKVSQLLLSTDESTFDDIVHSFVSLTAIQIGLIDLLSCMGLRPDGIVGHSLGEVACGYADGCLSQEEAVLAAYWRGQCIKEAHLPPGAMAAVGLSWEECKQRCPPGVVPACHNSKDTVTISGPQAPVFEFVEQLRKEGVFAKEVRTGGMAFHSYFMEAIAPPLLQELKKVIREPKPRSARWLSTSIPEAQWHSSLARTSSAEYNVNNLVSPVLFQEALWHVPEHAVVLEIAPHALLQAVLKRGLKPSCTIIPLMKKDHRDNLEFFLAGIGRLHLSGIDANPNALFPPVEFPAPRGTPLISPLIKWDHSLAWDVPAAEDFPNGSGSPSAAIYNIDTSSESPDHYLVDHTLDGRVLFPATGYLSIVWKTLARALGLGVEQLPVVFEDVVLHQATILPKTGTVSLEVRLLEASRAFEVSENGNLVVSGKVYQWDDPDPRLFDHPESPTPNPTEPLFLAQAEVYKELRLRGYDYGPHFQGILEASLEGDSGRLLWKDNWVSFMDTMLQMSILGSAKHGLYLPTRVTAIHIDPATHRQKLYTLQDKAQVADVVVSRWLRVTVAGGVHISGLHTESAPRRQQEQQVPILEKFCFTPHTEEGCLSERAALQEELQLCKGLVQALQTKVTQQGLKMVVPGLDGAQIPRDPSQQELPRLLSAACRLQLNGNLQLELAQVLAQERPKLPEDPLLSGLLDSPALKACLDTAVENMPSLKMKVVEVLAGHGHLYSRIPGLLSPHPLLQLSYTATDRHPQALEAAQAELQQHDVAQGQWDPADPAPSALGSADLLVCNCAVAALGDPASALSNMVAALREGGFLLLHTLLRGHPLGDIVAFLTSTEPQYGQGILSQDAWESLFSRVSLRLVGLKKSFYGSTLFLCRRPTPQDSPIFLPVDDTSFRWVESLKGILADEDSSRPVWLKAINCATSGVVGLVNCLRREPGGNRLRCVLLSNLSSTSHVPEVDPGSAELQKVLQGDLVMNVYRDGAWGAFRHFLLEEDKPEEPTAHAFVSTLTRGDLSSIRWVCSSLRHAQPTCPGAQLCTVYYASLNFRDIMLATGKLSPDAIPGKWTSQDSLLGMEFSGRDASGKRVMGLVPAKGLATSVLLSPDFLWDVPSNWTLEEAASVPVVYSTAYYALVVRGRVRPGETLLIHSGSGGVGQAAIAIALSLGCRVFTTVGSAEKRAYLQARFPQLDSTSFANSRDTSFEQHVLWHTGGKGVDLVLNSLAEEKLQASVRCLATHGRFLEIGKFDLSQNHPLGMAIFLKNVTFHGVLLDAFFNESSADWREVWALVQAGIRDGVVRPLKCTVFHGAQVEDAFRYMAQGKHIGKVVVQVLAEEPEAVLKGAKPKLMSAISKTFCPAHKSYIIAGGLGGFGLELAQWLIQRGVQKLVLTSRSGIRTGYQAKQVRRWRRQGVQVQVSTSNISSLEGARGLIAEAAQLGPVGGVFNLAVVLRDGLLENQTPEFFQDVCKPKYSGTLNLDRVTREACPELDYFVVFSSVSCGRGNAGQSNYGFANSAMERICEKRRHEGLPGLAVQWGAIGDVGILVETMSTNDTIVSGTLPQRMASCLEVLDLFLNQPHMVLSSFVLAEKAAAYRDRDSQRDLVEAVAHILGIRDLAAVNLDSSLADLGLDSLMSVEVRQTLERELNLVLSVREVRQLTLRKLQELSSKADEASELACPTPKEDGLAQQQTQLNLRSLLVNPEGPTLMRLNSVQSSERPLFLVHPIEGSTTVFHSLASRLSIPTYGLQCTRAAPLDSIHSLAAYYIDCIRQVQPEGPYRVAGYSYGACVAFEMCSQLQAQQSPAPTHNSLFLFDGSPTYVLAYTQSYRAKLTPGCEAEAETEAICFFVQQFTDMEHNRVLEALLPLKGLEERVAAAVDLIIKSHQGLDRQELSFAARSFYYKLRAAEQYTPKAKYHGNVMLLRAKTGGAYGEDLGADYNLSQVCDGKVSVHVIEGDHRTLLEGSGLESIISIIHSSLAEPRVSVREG
Chain of Caspase-3 (P42574 29-175 limits assumed): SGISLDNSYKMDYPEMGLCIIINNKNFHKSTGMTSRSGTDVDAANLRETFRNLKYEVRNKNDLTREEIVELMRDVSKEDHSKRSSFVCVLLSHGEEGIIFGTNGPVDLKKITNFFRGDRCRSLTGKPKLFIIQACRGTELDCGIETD
Chain of Caspase-3 (P42574 176-277 limits assumed): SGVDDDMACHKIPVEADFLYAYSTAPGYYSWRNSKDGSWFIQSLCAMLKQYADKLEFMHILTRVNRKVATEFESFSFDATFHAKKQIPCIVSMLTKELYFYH
Chain of Sentrin-specific protease 7 (Q9BQF6 whole entry, the tested form may be a part): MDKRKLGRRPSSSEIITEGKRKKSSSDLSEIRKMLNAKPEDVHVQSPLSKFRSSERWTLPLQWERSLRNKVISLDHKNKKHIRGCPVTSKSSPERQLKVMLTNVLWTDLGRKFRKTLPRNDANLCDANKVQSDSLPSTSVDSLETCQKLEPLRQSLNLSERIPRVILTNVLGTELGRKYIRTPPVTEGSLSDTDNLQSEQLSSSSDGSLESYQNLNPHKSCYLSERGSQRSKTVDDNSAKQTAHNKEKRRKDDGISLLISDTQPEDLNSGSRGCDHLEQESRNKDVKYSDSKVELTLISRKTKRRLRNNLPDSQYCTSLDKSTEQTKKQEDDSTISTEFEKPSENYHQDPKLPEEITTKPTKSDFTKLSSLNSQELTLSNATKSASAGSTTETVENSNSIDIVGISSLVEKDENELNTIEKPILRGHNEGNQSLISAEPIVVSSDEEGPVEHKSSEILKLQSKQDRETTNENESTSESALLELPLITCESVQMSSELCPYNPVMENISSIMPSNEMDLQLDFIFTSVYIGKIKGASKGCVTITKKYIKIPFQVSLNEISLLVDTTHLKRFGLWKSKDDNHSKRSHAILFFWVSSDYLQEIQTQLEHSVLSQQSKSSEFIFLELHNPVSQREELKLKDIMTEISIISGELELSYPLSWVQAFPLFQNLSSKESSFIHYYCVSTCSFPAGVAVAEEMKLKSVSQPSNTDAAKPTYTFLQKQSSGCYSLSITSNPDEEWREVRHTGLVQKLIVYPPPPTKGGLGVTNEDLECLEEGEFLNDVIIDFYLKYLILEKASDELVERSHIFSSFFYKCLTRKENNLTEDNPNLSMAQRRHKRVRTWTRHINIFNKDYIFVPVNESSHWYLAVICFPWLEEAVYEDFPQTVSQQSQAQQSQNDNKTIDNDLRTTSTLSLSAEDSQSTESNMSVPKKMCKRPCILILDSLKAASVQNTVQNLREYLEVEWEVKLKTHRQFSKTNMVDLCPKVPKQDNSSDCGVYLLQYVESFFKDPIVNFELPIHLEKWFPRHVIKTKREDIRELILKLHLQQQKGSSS

With `O=C(N/N=C\c1c(O)ccc2ccccc12)c1ccc(S(=O)(=O)N2CCCCC2)cc1` the IC50 [1] was > 80 µM (inactive), the EC50 [2] was 5.71 µM (active) and the EC50 [3] was > 350 µM (not active). For the same compound, the EC50 [4] was 0.558 µM (inconclusive), the EC50 [5] was 3.29 µM (active) and the AC50 [6] was < 0.195 µM (active). The EC50 [7] was 0.178 µM (active).

For `COc1ccc(-n2nc3cc(C)c(N)c(Br)c3n2)cc1`, the IC50 [8] was > 50 µM (not active), the IC50 [9] was > 67.5 µM (inactive) and the EC50 [10] was > 67.5 µM (inactive). The IC50 [11] was 41.3 µM (active), the EC50 [12] was > 67.5 µM (inactive) and the IC50 [13] was 35.5 µM (active). The IC50 [14] was 5.86 µM (active), the EC50 [15] was > 67.5 µM (inactive) and the IC50 [16] was 13.7 µM (active). The IC50 [17] was > 50 µM (not active) and the IC50 [18] was 2.53 µM (active).

With `O=c1c(OC2OC(CO)C(O)C(O)C2O)c(-c2ccc(O)c(O)c2)oc2cc(O)cc(O)c12` (stereo not given) the IC50 [8] was 21.3 µM (active), the AC50 [19] was 8.92 µM (active) and the IC50 [20] was 2.06 µM (active). The AC50 [21] was 7.72 µM (active).

In the case of `COc1cc(OC)cc(Oc2ccc(S(=O)(=O)N3CCCCC3)cc2[N+](=O)[O-])c1`, the IC50 [22] is reported as > 64.6 µM (inactive) and the IC50 [23] is reported as > 64.6 µM (inactive).

With `Cc1ccc(OCc2nc(-c3ccccc3)no2)cc1` the IC50 [11] was 69.9 µM (active), the IC50 [13] was 42.1 µM (active) and the IC50 [14] was 11.6 µM (active). The IC50 [16] was 47.1 µM (active).

In the case of `O=C(Nc1nnc(-c2ccc(F)cc2)o1)c1cccc([N+](=O)[O-])c1`, the EC50 [24] is reported as > 150 µM (inactive), the EC50 [25] is reported as > 180 µM (inactive) and the IC50 [26] is reported as 9.09 µM (active). For the same compound, the CC50 [27] was 11.4 µM (active), the IC50 [28] was 11.9 µM (active) and the EC50 [5] was > 150 µM (inactive). For the same compound, the EC50 [7] was 0.601 µM (active).
